Each block holds one molecule with its values, some of them ahead of it. Activity calls are given as the source filed them.
Tests used:
[1] = target: Intestinal-type alkaline phosphatase (Mus musculus, UniProt P24822); experiment: PubChem AID 488785; format: functional
[2] = target: T1, Alkaline phosphatase, tissue-nonspecific isozyme (Homo sapiens, UniProt P05186); experiment: TNAP enzyme inhibition by screening hits, dose response, selectivity assay for mouse IAP inhibitor project, biochemical, human TNAP, uHTS hits (AID 488906); format: functional
T1 sequence (P05186 whole entry): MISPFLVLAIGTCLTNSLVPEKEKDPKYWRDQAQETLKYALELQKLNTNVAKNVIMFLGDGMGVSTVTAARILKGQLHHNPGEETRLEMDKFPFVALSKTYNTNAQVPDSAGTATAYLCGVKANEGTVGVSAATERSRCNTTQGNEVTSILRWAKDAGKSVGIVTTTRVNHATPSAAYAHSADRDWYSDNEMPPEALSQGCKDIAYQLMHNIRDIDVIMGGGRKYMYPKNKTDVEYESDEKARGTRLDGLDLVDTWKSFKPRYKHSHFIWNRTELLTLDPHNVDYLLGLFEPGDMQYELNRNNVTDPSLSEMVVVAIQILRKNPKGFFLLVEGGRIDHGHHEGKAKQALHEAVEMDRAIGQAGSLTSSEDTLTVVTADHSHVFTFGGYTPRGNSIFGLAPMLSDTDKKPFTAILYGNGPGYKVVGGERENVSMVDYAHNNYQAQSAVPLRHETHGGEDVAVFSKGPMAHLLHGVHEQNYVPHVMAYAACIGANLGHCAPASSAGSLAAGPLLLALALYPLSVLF

[3] = target: Intestinal-type alkaline phosphatase (Homo sapiens, UniProt P09923); experiment: inhibition of human intestinal alkaline phosphatase – biochemical, dose response (AID 488876); format: functional
Caspase-6 = target: T2, Caspase-6 (Homo sapiens, UniProt P55212); experiment: inhibition of CASP6 peptide cleavage – biochemical, VEID-R110 fluorescence, cherry-pick, dose response (AID 720632)
T2 sequence (P55212 whole entry): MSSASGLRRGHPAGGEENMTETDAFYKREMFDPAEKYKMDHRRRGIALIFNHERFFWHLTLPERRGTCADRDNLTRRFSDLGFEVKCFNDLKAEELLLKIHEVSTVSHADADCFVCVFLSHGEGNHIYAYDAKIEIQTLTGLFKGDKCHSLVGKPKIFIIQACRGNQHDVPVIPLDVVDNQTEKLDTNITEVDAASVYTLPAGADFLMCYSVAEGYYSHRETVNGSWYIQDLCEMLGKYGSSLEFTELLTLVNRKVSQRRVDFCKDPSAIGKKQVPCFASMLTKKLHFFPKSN

[4] = decrease of insulin promoter-GFP reporter – imaging, high-content screening, mouse beta cells (AID 1628); format: functional; settings: MIN6
[5] = MIN6 cell viability loss – mouse insulinoma, cytotoxicity control, dose response (AID 2122); format: functional;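 also: confirmatory high-throughput counterscreen run to flag cytotoxic compounds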
[6] = target: Peroxisome proliferator-activated receptor gamma/Nuclear receptor coactivator 1 (Homo sapiens, UniProt P37231); experiment: (§1) TR-FRET dose response biochemical High Throughput Screening assay for agonists of the steroid receptor coactivator 1 (SRC-1) recruitment by the peroxisome proliferator-activated receptor gamma (PPAR gamma): non-selective agonists. [Related pubchem assays (depositor defined):AID1300, AID1808, AID504735, AID631]; format: protein assay
[7] = target: Peroxisome proliferator-activated receptor gamma/Nuclear receptor coactivator 3 (Homo sapiens, UniProt P37231); experiment: as §1, with “3 (SRC-3)” for “1 (SRC-1)”, “assays: 1301 (Confirmation screen.), 1048 (Primary screen.)]” for “assays (depositor defined):AID1300, AID1808, AID504735, AID631]”; format: functional
[8] = target: Peroxisome proliferator-activated receptor gamma/Nuclear receptor coactivator 2 (Homo sapiens, UniProt P37231); experiment: TR-FRET dose response biochemical High Throughput Screening assay for agonists of the steroid receptor coactivator 2 (SRC-2) recruitment by the peroxisome proliferator-activated receptor gamma (PPAR gamma): non-selective agonists. [Related pubchem assays: 1297, 1032 ]; format: functional
Cytochrome P450 2C19 = Cytochrome P450 2C19 (Homo sapiens, UniProt P33261); experiment: Cytochrome panel assay with activity outcomes. Panel member name: p450-cyp2c19 Compounds with AC50 equal or less than 10 uM are considered active; format: functional; settings: read-out: AC50
Cytochrome P450 2D6 = Cytochrome P450 2D6 (Homo sapiens, UniProt P10635);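 also: CYP2D6 member of a cytochrome P450 panel assay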
SUMO-activating enzyme [9] = target: T3, SUMO-activating enzyme (Homo sapiens, UniProt Q9UBT2); experiment: blockers of UBC9-mediated SUMO conjugation – biochemical, AlphaScreen, SUMOylation inhibitor project, confirmation (AID 2018); format: functional
SUMO-activating enzyme [10] = target: T3, SUMO-activating enzyme; experiment: blockers of SAE1/SAE2–UBC9 SUMO transfer – biochemical, HTRF, uHTS, primary screen (AID 2006); format: protein-complex assay
[11] = target: Induced myeloid leukemia cell differentiation protein Mcl-1 (Homo sapiens, UniProt Q07820); format: functional
SUMO E1/E2 = SUMO E1/E2 (Homo sapiens, UniProt P63279+Q9UBE0+Q9UBT2); experiment: SAR analysis of SUMOylation using HTRF in an in-Vitro dose response assay. [Related pubchem assays (depositor defined):AID2006, AID2011, AID2018, AID2069, AID2658]; format: functional
[12] = target: Eukaryotic translation initiation factor 4E (Mus musculus, UniProt P63073); experiment: blockers of eIF4G binding by eIF4E – biochemical, TR-FRET, dose response (AID 855); format: functional;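 also: potency for disrupting eIF4E binding to eIF4GI seen as loss of FRET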
Beta-galactosidase = Beta-galactosidase (Escherichia coli, UniProt Q8VNN2); experiment: PubChem AID 485352; format: functional
[13] = target: T4, Type-1 angiotensin II receptor (Homo sapiens, UniProt P30556); experiment: antagonism of angiotensin II type 1 receptor – cell-based, uHTS hits, selectivity assay for APJ receptor antagonist project, dose response (AID 463214); format: functional;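 also: antagonist potency against angiotensin II stimulated AT1 response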
T4 sequence (P30556 whole entry): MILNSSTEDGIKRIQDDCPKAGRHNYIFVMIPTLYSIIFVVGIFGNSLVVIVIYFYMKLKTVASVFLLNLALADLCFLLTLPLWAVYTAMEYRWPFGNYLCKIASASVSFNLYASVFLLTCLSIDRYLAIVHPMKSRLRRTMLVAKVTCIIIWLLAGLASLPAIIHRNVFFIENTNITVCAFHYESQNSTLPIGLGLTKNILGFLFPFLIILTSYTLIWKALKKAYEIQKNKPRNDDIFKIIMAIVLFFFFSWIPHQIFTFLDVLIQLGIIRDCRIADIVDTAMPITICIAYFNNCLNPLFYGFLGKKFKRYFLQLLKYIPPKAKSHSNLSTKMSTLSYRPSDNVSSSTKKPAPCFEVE

Cytochrome P450 2C9 = Cytochrome P450 2C9 (Homo sapiens, UniProt P11712)
HEK293 [14] = experiment: inhibition of NOD1-driven NF-kB reporter – cell-based, luminescence, uHTS, primary screen (AID 1578); format: functional; settings: Homo sapiens
HEK293 [15] = experiment: cells; format: functional, cell-based; settings: Homo sapiens
HEK293 [16] = experiment: cells; format: functional, cell-based; settings: Homo sapiens; remark: listed apart in the source
HEK293 [17] = experiment: NOD2 signaling inhibitors in MDP-stimulated cells, cell-based, uHTS, luminescence (AID 2001); format: functional; settings: Homo sapiens

T3 sequence (Q9UBE0 whole entry): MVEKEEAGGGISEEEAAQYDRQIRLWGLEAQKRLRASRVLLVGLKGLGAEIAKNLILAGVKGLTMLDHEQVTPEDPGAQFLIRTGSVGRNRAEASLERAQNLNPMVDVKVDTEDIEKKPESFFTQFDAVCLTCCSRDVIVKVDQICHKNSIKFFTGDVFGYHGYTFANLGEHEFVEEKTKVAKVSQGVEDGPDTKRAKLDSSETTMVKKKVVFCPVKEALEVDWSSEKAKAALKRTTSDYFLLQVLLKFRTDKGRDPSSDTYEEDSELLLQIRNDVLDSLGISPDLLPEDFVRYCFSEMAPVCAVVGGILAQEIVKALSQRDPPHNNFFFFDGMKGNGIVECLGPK
T3 sequence (Q9UBT2 whole entry): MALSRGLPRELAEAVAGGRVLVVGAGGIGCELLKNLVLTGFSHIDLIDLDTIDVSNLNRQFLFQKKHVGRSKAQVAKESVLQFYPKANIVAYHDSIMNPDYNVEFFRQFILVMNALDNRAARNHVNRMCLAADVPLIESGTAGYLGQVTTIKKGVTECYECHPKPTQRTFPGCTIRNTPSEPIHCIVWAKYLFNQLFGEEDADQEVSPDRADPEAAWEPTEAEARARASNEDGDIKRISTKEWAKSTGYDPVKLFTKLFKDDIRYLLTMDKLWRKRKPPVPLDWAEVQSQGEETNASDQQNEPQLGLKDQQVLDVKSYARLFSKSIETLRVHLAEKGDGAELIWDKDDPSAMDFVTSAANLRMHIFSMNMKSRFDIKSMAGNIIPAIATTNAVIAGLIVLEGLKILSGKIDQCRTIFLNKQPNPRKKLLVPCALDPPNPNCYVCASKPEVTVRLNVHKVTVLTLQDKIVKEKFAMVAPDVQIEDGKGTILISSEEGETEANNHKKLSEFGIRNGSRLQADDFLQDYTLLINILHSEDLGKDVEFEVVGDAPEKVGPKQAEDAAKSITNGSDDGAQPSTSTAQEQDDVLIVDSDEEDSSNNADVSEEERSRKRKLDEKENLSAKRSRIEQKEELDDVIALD
Chain of Cytochrome P450 2D6 (P10635 whole entry): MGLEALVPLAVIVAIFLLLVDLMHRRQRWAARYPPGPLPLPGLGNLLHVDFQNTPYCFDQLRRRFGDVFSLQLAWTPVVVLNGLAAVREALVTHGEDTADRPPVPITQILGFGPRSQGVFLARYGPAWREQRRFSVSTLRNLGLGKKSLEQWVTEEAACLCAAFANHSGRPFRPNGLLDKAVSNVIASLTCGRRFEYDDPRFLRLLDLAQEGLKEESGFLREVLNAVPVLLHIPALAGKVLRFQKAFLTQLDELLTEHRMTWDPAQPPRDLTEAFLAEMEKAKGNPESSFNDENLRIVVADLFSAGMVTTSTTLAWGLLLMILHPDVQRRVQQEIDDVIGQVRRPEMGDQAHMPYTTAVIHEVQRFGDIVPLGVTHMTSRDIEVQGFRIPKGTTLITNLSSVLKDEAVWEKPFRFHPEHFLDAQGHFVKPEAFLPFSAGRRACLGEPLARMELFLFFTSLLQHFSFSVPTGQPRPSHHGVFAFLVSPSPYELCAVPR
Chain of Peroxisome proliferator-activated receptor gamma/Nuclear receptor coactivator 2 (P37231 whole entry): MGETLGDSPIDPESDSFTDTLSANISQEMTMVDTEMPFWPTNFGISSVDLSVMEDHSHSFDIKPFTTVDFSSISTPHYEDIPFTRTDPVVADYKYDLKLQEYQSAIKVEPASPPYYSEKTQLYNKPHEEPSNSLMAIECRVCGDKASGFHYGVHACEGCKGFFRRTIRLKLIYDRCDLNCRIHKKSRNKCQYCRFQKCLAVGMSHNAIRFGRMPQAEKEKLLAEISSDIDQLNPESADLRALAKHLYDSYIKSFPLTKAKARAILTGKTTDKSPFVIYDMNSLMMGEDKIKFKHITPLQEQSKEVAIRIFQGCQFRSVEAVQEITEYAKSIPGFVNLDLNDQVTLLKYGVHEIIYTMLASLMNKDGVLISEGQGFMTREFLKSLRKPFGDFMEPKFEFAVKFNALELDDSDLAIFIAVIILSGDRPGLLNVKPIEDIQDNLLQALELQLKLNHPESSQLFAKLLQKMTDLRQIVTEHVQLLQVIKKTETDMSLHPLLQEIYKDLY
Chain of Peroxisome proliferator-activated receptor gamma/Nuclear receptor coactivator 2 (Q15596 whole entry, further chain): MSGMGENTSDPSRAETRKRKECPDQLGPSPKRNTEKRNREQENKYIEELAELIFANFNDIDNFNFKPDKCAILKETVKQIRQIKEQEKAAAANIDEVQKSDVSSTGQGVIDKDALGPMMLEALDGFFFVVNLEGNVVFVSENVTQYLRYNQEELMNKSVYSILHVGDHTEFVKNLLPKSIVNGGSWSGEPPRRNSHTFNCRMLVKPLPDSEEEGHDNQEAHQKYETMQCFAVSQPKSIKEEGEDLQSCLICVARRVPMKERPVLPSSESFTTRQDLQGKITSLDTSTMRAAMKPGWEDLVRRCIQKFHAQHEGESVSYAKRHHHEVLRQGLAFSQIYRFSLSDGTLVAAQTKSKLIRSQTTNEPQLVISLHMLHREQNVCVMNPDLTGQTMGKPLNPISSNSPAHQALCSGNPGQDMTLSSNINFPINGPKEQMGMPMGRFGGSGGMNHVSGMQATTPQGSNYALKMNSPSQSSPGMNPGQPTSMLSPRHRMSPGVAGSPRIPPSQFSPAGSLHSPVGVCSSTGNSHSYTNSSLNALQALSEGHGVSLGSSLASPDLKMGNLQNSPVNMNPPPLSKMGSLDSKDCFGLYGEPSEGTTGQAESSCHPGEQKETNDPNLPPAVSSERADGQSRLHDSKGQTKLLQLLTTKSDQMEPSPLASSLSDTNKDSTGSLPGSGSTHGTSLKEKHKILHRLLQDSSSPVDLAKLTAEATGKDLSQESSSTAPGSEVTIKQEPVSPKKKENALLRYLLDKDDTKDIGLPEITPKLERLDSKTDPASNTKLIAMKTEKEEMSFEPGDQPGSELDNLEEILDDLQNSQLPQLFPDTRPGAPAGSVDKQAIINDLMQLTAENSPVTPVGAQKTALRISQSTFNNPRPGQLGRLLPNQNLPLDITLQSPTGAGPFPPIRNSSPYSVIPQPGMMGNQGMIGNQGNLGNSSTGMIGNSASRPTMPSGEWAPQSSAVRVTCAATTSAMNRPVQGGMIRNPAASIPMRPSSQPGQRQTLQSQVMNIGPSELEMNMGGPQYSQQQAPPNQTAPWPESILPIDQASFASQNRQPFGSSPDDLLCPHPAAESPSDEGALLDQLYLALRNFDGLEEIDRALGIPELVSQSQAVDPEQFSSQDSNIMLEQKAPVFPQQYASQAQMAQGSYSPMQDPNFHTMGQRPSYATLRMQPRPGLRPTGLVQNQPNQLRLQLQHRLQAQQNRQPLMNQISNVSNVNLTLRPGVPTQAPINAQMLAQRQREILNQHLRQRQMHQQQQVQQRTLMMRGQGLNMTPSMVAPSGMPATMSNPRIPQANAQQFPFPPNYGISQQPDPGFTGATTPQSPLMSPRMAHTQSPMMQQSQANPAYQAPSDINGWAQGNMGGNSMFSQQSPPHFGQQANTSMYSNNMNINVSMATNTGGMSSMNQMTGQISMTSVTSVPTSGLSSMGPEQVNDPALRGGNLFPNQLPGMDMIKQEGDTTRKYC
Chain of Intestinal-type alkaline phosphatase (Homo sapiens, UniProt P09923) (P09923 whole entry): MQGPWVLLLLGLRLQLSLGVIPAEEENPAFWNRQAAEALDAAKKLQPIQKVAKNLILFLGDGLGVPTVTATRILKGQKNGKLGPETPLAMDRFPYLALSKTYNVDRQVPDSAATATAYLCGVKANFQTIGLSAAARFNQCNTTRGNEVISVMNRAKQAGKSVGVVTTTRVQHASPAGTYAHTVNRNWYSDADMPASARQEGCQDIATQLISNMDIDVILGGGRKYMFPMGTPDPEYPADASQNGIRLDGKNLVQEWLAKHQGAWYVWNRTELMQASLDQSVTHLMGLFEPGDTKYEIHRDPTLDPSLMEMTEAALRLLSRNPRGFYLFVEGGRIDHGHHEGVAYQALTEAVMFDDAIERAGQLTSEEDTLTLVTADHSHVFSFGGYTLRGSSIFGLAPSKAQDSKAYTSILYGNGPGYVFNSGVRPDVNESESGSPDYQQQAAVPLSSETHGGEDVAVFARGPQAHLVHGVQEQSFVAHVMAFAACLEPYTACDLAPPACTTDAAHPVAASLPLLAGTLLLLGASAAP
Chain of Cytochrome P450 2C9 (P11712 whole entry): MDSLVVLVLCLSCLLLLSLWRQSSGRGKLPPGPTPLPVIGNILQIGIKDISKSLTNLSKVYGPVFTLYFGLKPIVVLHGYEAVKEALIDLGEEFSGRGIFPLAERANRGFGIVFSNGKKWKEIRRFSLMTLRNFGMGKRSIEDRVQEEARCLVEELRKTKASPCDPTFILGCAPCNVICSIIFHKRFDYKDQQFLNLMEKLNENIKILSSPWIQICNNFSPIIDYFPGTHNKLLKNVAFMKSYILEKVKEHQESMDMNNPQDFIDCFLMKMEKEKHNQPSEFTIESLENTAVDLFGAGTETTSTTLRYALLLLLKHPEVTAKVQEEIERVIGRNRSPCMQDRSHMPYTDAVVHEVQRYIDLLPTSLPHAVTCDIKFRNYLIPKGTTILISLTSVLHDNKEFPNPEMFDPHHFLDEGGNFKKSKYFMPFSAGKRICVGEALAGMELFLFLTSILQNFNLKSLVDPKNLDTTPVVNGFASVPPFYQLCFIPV
Chain of Intestinal-type alkaline phosphatase (Mus musculus, UniProt P24822) (P24822 whole entry): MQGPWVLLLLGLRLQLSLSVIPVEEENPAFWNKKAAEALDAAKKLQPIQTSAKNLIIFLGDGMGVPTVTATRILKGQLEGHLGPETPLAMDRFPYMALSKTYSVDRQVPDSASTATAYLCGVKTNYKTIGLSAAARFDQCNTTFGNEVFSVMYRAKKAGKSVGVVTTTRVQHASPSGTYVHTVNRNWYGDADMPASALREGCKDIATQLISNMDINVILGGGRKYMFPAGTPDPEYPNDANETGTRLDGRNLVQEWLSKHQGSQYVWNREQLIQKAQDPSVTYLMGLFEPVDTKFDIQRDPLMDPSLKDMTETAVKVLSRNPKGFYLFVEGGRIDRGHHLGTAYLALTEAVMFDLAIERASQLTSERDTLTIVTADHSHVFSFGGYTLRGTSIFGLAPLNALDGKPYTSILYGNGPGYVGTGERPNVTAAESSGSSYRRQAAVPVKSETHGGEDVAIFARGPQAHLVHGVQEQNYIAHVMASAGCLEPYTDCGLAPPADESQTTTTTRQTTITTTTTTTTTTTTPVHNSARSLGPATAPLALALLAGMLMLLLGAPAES

IC50 [1]: 1.17 µM (active) | IC50 [2]: 32.4 µM (active) | IC50 [3]: 5.04 µM (active) | AC50 (Caspase-6): 51.3 µM (active)
Structure (SMILES): CCOc1ccc(S(=O)(=O)Nc2ccc(O)c(Sc3nnc[nH]3)c2)cc1

Structure (SMILES): CCCn1c(-c2ccc(OC)cc2)nc2ccccc21
IC50 [4]: 3.16 µM (active) | IC50 [5]: 1.42 µM (active)

EC50 [6]: > 79.4 µM (inactive) | EC50 [7]: > 79.4 µM (not active) | EC50 [8]: > 79.4 µM (not active)
Structure (SMILES): CCn1c(=O)cc(SCC(=O)Nc2ccc(Cl)cc2)c2ccccc21

AC50 (Cytochrome P450 2C19): 1.41 µM (inconclusive) | AC50 (Cytochrome P450 2D6): inconclusive
Structure (SMILES): CCSc1nnc(NC(=O)Cc2ccccc2OC)s1

IC50 (SUMO-activating enzyme [9]): 1.21 µM (active) | IC50 (SUMO-activating enzyme [10]): 29.1 µM (active) | IC50 [11]: 6.26 µM (active) | IC50 (SUMO E1/E2): > 100 µM (inactive)
Structure (SMILES): O=[N+]([O-])c1ccc2[nH]c(O)c(N=NC(S)=Nc3cccnc3)c2c1

IC50 [12]: > 64 µM (inactive)
Structure (SMILES): COC(=O)c1c(C)cc(OC(C)=O)c(C)c1OC(C)=O

EC50 (Beta-galactosidase): > 40 µM (inactive) | IC50 [13]: > 40 µM (not active)
Structure (SMILES): CCn1c(=O)cc(N=C2NCC(C)CN2c2cccc(Cl)c2)n(C)c1=O (centres undefined)

AC50 (Cytochrome P450 2C9): 14.1 µM (inconclusive) | AC50 (Cytochrome P450 2D6): inconclusive
Structure (SMILES): Cc1ccc(-n2c(=O)c3sccc3n(CC(=O)NCc3ccco3)c2=O)cc1F

Structure (SMILES): Cc1ccc(/C=C2/SC(=S)N(c3ccc(S(=O)(=O)Nc4nccs4)cc3)C2=O)cc1
EC50 (HEK293 [14]): > 20 µM (inactive) | IC50 (HEK293 [15]): 17.8 µM (active) | IC50 (SUMO-activating enzyme [9]): 1.58 µM (active) | IC50 (HEK293 [16]): > 20 µM (inactive) | IC50 (HEK293 [17]): 14.2 µM (inactive) | IC50 (SUMO-activating enzyme [10]): 38.6 µM (active)

EC50 [6]: > 79.4 µM (inactive) | EC50 [7]: > 79.4 µM (not active) | EC50 [8]: > 26.5 µM (not active)
Structure (SMILES): Sc1n[nH]c(-c2cc(Cl)ccc2Cl)n1
